One test deals with HPK1 (Homo sapiens (Human), UniProt Q92918). Kind of test: HPK1 ADP-Glo enzyme assay. In kind it is biochemical. Conditions: HPK1 protein 5 nM, MBP and ATP substrate, ADP-Glo readout. The protocol:
The buffer used in the enzyme assay contains 5 mM MOPS (pH=7.2), 2.5 mM β-Glycerol Phosphate, 0.4 mM EDTA, 1 mM EGTA, 0.05 mM DTT, 5 mM MgCl2. The compound was dissolved in 100% DMSO at the concentration was 10 mM. The initial concentration of the test was 5 uM, and ten data points were diluted by three-fold gradient, and each point was repeatedly measured twice. The HPK1 protein was purchased from Thermo (Cat. No. PV6355) and diluted to 2× stock solution at the concentration of 10 nM (the final concentration of the enzyme assay was 5 nM). 2.5 µl of 2×HPK1 protein was added to each well of the plate containing the test compound, centrifuged at 1000 rpm for 30 seconds, and then incubated at 25° C. for 15 minutes. MBP protein was purchased from Millipore (Cat. No. 13-110) and ATP was purchased from Sigma (Cat. No. A7699-5G) and the two were formulated into 2× working solutions at concentrations of 4 uM and 80 uM. Added 2.5 μl mixture of 2×MBP and ATP, centrifuged at 1000 rpm for 30 seconds, then incubated at 25° C. for 90 minutes. Then added 5 ul of ADP-Glo™ (Promega, Cat. No. V9102) to the assay plate and incubated […] at 25° C. for 60 minutes. Finally, 10 ul of the kinase assay reagent (Promega, Cat. No. V9102) was added to the assay plate, centrifuged at 1000 rpm for 30 seconds at 25° C. for 60 minutes, and the […] intensity was determined.
In general terms: ADP-Glo turns the ADP formed in a reaction into a luminescent signal.

Test [1] relates to pSLP-76(Ser376) in Jurkat E6-1 cells. The test can be described thus: Jurkat E6-1 pSLP-76(Ser376) HTRF experiment. In kind it is cell-based. The conditions noted are these: 4 hours compound incubation, anti-human CD3 antibody 20 minutes, Phospho-SLP-76 / SLP-76 HTRF. The procedure:
Jurkat E6-1 cells were purchased from ATCC (Cat. No. TIB-152TM) and cultured overnight with RPMI 1640 containing 0.5% o FBS, after that 20 μL (10^7 cells/mL) cells were added to the experimental plates. Then the test compounds were diluted by three-fold gradient, and 10 different concentrations were prepared, and 5 μl of each was added to the experimental plate, and incubated for 4 hours in 37° C. incubator containing 5% CO2. Then 5 ul of 6× anti-human CD3 antibody (Biolegend, Cat. No. 300432) was added and incubated for 20 minutes in 37° C. incubator containing 5% CO2. Finally, the Phospho-SLP-76 and SLP-76 results were determined using the Cisbio Phospho-SLP-76 and SLP-76 HTRF assay kits (items: 63ADK076PEH and 63ADK077PEH, respectively). Based on the results, the IC50 of the compound is calculated.
On the technique in general: Time-resolved FRET reads energy transfer from a long-lived donor to a nearby acceptor.

Sequence of HPK1 (Q92918 whole entry): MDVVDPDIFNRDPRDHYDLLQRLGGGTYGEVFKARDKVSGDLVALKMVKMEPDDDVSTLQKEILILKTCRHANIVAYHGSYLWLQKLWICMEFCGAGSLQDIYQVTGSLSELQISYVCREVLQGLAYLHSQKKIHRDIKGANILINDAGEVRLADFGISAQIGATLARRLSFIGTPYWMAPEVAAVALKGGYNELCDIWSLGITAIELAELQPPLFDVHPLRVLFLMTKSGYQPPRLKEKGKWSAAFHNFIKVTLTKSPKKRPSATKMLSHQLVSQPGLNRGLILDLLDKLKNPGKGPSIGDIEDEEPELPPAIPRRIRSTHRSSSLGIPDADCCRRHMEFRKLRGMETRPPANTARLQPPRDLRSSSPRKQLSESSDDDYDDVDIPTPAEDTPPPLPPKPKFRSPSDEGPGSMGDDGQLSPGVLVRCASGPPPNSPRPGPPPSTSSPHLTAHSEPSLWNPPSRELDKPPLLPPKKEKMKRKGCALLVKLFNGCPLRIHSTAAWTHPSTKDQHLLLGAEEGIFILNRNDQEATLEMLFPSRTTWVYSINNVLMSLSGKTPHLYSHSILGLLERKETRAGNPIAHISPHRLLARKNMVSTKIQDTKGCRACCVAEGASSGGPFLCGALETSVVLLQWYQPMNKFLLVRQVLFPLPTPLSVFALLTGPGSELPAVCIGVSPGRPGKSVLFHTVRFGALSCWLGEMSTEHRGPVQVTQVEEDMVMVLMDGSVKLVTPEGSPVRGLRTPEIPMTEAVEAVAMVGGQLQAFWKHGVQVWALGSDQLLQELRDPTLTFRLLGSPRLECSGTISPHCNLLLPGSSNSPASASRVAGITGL

Usually IC50 stands for the concentration that inhibits the measured activity by half. Read a low IC50 as higher potency. `CN1CCC(c2ncc(-c3cnc(N)c(OCc4cc(F)cc(C#CC(C)(C)O)c4)c3)s2)CC1` [A57]: the values for the IC50 (on HPK1; in test [1]) were below 0.1 µM and below 1 µM, respectively.

In the case of `CC1CN(C)CCN1c1ncc(-c2cnc(N)c(OCc3cccc(C#CC(C)(C)O)c3)c2)s1` (stereo not shown) [A63], the half-inhibitory concentration (IC50) was below 0.1 µM at HPK1 and below 1 µM in test [1].

Take `Nc1ncc(-c2cnc(C3CCOCC3)s2)cc1OCc1cc(C#CC2(O)CC2)ccc1F` [A46]: the half-inhibitory concentration (IC50) is below 0.1 µM on HPK1 and below 1 µM in test [1].

`COc1ccc(C#CC(C)(C)O)cc1COc1cc(-c2cnc(C3CCN(C)CC3)s2)cnc1N` [A59]: the values for the concentration for half-maximal inhibition (IC50) (against HPK1; in test [1]) were below 0.1 µM and below 1 µM, respectively.

Turning to `Nc1ncc(-c2cnc(C3CCNCC3)s2)cc1OCc1cccc(C#CC2(O)CC2)c1` [A52], the half-maximal inhibitory concentration (IC50) is below 0.1 µM on HPK1 and below 1 µM in test [1].

With `CN1CCC(c2ncc(-c3cnc(N)c(OCc4ccc(F)cc4)c3)s2)CC1` [A5], the IC50 lay within 0.1 to 1 µM against HPK1 and 1 to 50 µM in test [1].

`CC(C)c1ncc(-c2cnc(N)c(OCc3cc(C#CC(C)(C)O)ccc3F)c2)s1` [A21]: the half-inhibitory concentration (IC50) on HPK1 was below 0.1 µM; in test [1], below 1 µM.

On to `Cc1ncc(-c2cnc(N)c(OCc3ccncc3)c2)s1` [A35], for which the half-inhibitory concentration (IC50) was in the range of 0.1 to 1 µM on HPK1 and 1 to 50 µM in test [1].

Turning to `CN1CCC(c2ncc(-c3cnc(N)c(OCc4ccnc(C#N)c4)c3)s2)CC1` [A11], the figures for the half-maximal inhibitory concentration (IC50) (against HPK1; in test [1]) were 0.1 to 1 µM and 1 to 50 µM, respectively.

With `Nc1ncc(-c2cnc(C3CCOCC3)s2)cc1OCc1cccc(C#CC2(O)CC2)c1` [A50], the figures for the IC50 (on HPK1; in test [1]) were below 0.1 µM and below 1 µM, respectively.

For the molecule `CC(C)(O)C#Cc1cccc(COc2cc(-c3cnc(C4CCCCN4)s3)cnc2N)c1` (stereo not shown) [A49], the IC50 was below 0.1 µM against HPK1 and below 1 µM in test [1].

For the molecule `Nc1ncc(-c2cnn(C3CCOCC3)c2)cc1OCc1cc(C#CC2(O)CC2)ccc1F` [A51], the IC50 was below 0.1 µM against HPK1 and below 1 µM in test [1].

Regarding `CN1CCC(c2ncc(-c3cnc(N)c(OCc4cncc(C#CC(C)(C)O)c4)c3)s2)CC1` [A44], the IC50 against HPK1 was below 0.1 µM; in test [1] it was 1 to 50 µM.

Take `CN1CCC(c2ncc(-c3cnc(N)c(OCc4cc(C#CC5(O)CC5)ccc4F)c3)s2)CC1` [A48]: the half-inhibitory concentration (IC50) was below 0.1 µM at HPK1 and below 1 µM in test [1].

(Values after patent US20240300941A1, “HPK1 INHIBITORS, PREPARATION METHOD AND APPLICATION THEREOF” (ZHUHAI YUFAN BIOTECHNOLOGIES CO., LTD., priority 2018, published 2024).)
